The values that follow come from ChEMBL document CHEMBL3507680, “University of Dundee, Gates Library screen for HepG2 cell viability”.

The data set is described as follows: Human HepG2 cell viability assay in 384 well format. Type of data set: toxicity, cell-based. Further details: dose 125 nL, time 70.5 hour; cytotoxicity at 70.5 h: concentration not given beside the values. Conditions: HepG2 cells, read-out: Inhibition.
In the case of `Cn1cc(-c2nnn3c2COC(CNCc2ccccn2)C3)cn1` (stereo unspecified), the cytotoxicity at 70.5 h worked out at 14.6%.

On to `O=C(c1cccnc1)N1CCC2(CC1)CCN(Cc1ccccn1)C2=O`, for which the cytotoxicity at 70.5 h was -9.02%. The result for `Cn1cc(-c2nnn3c2COC(CNCc2ccncc2)C3)cn1` (stereo unspecified) reads -2.68%. The value for `O=C(Cc1cccnc1)N1CCCC2(CCN(CC3CCOCC3)C2)C1` (stereo unspecified) was 1.37%. The result for `Cn1cccc1C(=O)N1CCN2C[C@H](Oc3cccnc3)C[C@H]2C1` reads 21.7%; that for `Cn1cc(-c2nnn3c2COC(CNC(=O)c2cccs2)C3)cn1` (stereo unspecified), 22.3%. As to `Cn1cc(-c2nnn3c2COC(CNCc2cccnc2)C3)cn1` (stereo unspecified), the cytotoxicity at 70.5 h is 18.5%.

On to `O=C(c1ccnnc1)N1CCN2C[C@H](Oc3cccnc3)C[C@H]2C1`, for which the cytotoxicity at 70.5 h is -0.791%.

With `O=C(c1cnccn1)N1CCN2C[C@H](Oc3cccnc3)C[C@H]2C1`, the cytotoxicity at 70.5 h was 4.06%. The value for `O=C(c1ccc[nH]1)N1CCC2(CC1)CC(Oc1cccnc1)CO2` (stereo unspecified) was 25%; that for `O=C(c1cnccn1)N1CCC2(CC1)CC(Oc1ccccc1)CO2` (stereo unspecified) was 25.9%; that for `Cc1ccoc1C(=O)N1C[C@H](OCC2CC2)[C@H]2OCCC[C@H]21` was -0.347%. Turning to `COC[C@@H]1CC[C@H]2[C@H](CCN2S(=O)(=O)c2ccc(C)cc2)O1`, the cytotoxicity at 70.5 h is -4.48%. Turning to `CS(=O)(=O)N1CCC2(CC1)CC(CC(=O)NCC1CC1)c1ccccc12` (stereo unspecified), the cytotoxicity at 70.5 h stood at 5.79%. With `O=c1cc(Cn2cncn2)nc2n1CCCN(Cc1ccoc1)C2`, the cytotoxicity at 70.5 h is -0.379%. The value for `Cc1ccoc1C(=O)N1C[C@@H](OCC2CC2)[C@H]2OCCC[C@H]21` was -1.01%. In the case of `COCCN1C[C@@H]2[C@@H](OC)CCN(C(=O)c3cccc(OC)c3)[C@@H]2C1`, the cytotoxicity at 70.5 h is 2%.

With `Cc1ccc(CN2CCC3(CC2)C(=O)NCCN3CC2CC2)o1`, the cytotoxicity at 70.5 h worked out at 8.52%.

For `CN1CCC2(CC1)CN(C(=O)c1cccnc1)Cc1ccccc12`, the cytotoxicity at 70.5 h turned out to be 9.45%.

For `CC(=O)N1CC[C@H]2OCC[C@@H](C(=O)NCc3ccco3)[C@H]2C1`, the cytotoxicity at 70.5 h was -12.4%. The result for `CCCc1cc(NCCCC2CCOC2)n2nccc2n1` (stereo unspecified) reads -2.1%; that for `CCc1ccc2nc(NCC(O)CO)cc(C)c2c1` (stereo unspecified), 1.81%; that for `N[C@@H]1c2ccccc2C2(CCN(c3ccc(C(F)(F)F)cn3)CC2)[C@H]1O`, -15.9%.

`CCC(NC(=O)CCCN1CCCCC1)c1cn2cccnc2n1` (stereo unspecified): the cytotoxicity at 70.5 h was -0.954%. The value for `C[C@@H]1CC[C@@H](C)N1C(=O)c1cc(COc2ccccc2)[nH]n1` was -0.483%.

For the compound `Nc1nc(CCNc2ncnc3c2CCN(C(=O)C2CC2)C3)cs1`, the cytotoxicity at 70.5 h was -11.6%.

Consider `Cc1nc2c(C)cccc2cc1C(=O)N1CCC2(CCNCC2)CC1`, for which the cytotoxicity at 70.5 h was -5.65%.

As for `O=C(NC1CCCNC1=O)c1ccc2nc(-c3ccc(F)cc3)cn2c1` (stereo unspecified), the cytotoxicity at 70.5 h was determined as 15%.

As to `CS(=O)(=O)N1CCCn2nc(CNc3ncccn3)cc2C1`, the cytotoxicity at 70.5 h is -1.06%. The result for `O=C(c1cocn1)N1C[C@H]2CCC[C@@]2(COc2ccccn2)C1` reads 8.39%. `Cc1noc(C)c1C(=O)N1C[C@@H]2COC[C@]2(COc2ccccn2)C1`: the cytotoxicity at 70.5 h was determined as 10.4%. Take `Cc1cccc(CN2Cc3ccnn3CC(COCC3CC3)C2)n1` (stereo unspecified): the cytotoxicity at 70.5 h was determined as 8.5%. The value for `O=C(c1ncccn1)N1C[C@H]2CCC[C@@]2(COc2ccccn2)C1` was -6.17%; that for `Cc1ccccc1CC(=O)N1C[C@@H]2COC[C@]2(CN(C)C)C1` was -6.68%. Take `O=C([C@@H]1C[C@@H]2CCN(Cc3ccc4c(c3)OCO4)C[C@@H]2O1)N1CCCC1`: the cytotoxicity at 70.5 h is -11.1%. As for `Cc1nc(CN2CCO[C@H]3[C@H](OCC(=O)N(C)C)CC[C@@H]32)cs1`, the cytotoxicity at 70.5 h is 17.3%. For `Cn1nccc1-c1nnn2c1COC(CNCc1nccs1)C2` (stereo unspecified), the cytotoxicity at 70.5 h is 0.565%.

Turning to `Cc1cccc(CN2CCCn3c(nnc3Cn3cccn3)C2)n1`, the cytotoxicity at 70.5 h is 10.9%. The result for `O=C1COC2(CCN(c3ncccn3)CC2)CN1Cc1ccccn1` reads -5.98%; that for `Cc1nnn2c1COC(CNCc1nccs1)C2` (stereo unspecified), 2.74%. For `CC(=O)N1CCC2(CCN(Cc3ccccn3)C2=O)C1` (stereo unspecified), the cytotoxicity at 70.5 h is 3.63%. In the case of `O=C(C1CC=CC1)N1CCC2(CCN(Cc3ccccn3)C2=O)C1` (stereo unspecified), the cytotoxicity at 70.5 h amounted to 5.7%. On to `CC(C)N1CCOCC2(CCCN(C(=O)CCc3cccnc3)C2)C1` (stereo unspecified), for which the cytotoxicity at 70.5 h was -6.39%. The result for `COc1cc(N2CCC3(CCCN(C(=O)c4cnccn4)C3)C2)ncn1` (stereo unspecified) reads 17%; that for `O=C(c1cccnc1)N1CCC2(CC1)CC(Oc1ccccc1)CO2` (stereo unspecified), 26.5%; that for `Cc1noc(C)c1CN1CCO[C@H]2CN(C(=O)C3CCOCC3)C[C@H]21`, -0.225%. The result for `c1cnc(N2CCOC3(CCN(CC4CCOC4)CC3)C2)nc1` (stereo unspecified) reads 2.18%; that for `O=C(c1cnccn1)N1CCCC2(CCN(c3ncccn3)C2)C1` (stereo unspecified), 4.46%; that for `Cc1ccc(N2CCC3(CCN(C(=O)c4ccoc4)CC3)CC2)nn1`, -4.56%. The value for `Cn1ccc(C(=O)N2C[C@H]3CCC[C@@]3(COCc3cccnc3)C2)n1` was -0.791%.

As for `CN1CC[C@H]2OCC[C@@H](C(=O)NCc3ccco3)[C@@H]2C1`, the cytotoxicity at 70.5 h worked out at 9.03%. The value for `Cc1ccc(S(=O)(=O)N2CC[C@H]3CO[C@H](CN(C)C)[C@H]3C2)cc1` was -6.81%; that for `CN1CCOCC2(CCCN(C(=O)c3ccc(-n4cccc4)cc3)C2)C1` (stereo unspecified) was 9.26%; that for `Cc1ccc(C(=O)N2C[C@H]3CCC[C@@]3(COc3ccccn3)C2)nc1` was 11.3%. The value for `COCC1CC2(CCN(Cc3ccoc3)CC2)CN1C(C)C` (stereo unspecified) was -9.47%.

Consider `O=C(Nc1cccnc1)[C@H]1C[C@H]2OCC[C@H]2N(CC2CC2)C1`, for which the cytotoxicity at 70.5 h is -14.8%. The value for `CCN(C)c1ncnc2c1CCN(Cc1ccsc1)CC2` was 0.529%; that for `Cc1cccc(N2CCC3(CCCN(C(=O)c4cccnc4)C3)C2)n1` (stereo unspecified) was 18.7%.

`Cc1cccc(N2CCC3(CCCN(C(=O)c4cccnc4)C3)CC2)n1`: the cytotoxicity at 70.5 h amounted to 0.517%. Regarding `c1cnc(N2C[C@H]3CN(CC4CCOC4)C[C@H]3C2)nc1` (stereo partly specified), the cytotoxicity at 70.5 h was -4.56%. For the compound `c1cnc(N2CCC3(CCN(CC4CCOCC4)CC3)C2)nc1`, the cytotoxicity at 70.5 h was 0.659%. The value for `CN1CC(=O)N(c2ccccc2)CC12CCN(CC1CCOCC1)C2` (stereo unspecified) was 22.5%; that for `Cc1cccc(N2CCC3(CCN(C(=O)c4cccnc4)CC3)C2)n1` was 14%; that for `c1cnc(N2CCC3(COCCN(CC4CCOCC4)C3)C2)nc1` (stereo unspecified) was 3.27%. The value for `O=c1cc(Cn2cncn2)nc2n1CCCN(CCN1CCCC1)C2` was -9.08%; that for `Cc1nc(CO[C@@H]2CC[C@H]3[C@H]2OCCN3Cc2cccnc2)cs1` was 14.5%.
